From PubChem BioAssay (NCI)
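48-hour exposure; five concentrations; linearly interpolated endpoints. At the TGI there is no net growth.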

How the values were obtained:
Test in all cases: NCI tumour cell line growth inhibition, 48 h
SNB-19 CNS = test system: SNB-19 CNS
TK-10 renal = test system: TK-10 renal
SF-539 CNS = test system: SF-539 CNS
UACC-62 melanoma = test system: UACC-62 melanoma
NCI-H226 lung = test system: NCI-H226 lung
LXFL 529 NSCLC = test system: LXFL 529 NSCLC
HL-60(TB) leukemia = test system: HL-60(TB) leukemia
DMS 273 small cell lung = test system: DMS 273 small cell lung
HT29 colon = test system: HT29 colon
HCC-2998 colon = test system: HCC-2998 colon
SN12C renal = test system: SN12C renal
HOP-18 NSCLC = test system: HOP-18 NSCLC
HCT-15 colon = test system: HCT-15 colon
SF-268 CNS = test system: SF-268 CNS
HOP-62 NSCLC = test system: HOP-62 NSCLC
SK-OV-3 ovarian = test system: SK-OV-3 ovarian
ACHN renal = test system: ACHN renal
MALME-3M melanoma = test system: MALME-3M melanoma
OVCAR-5 ovarian = test system: OVCAR-5 ovarian
SR leukemia = test system: SR leukemia
SNB-78 CNS = test system: SNB-78 CNS
SK-MEL-2 melanoma = test system: SK-MEL-2 melanoma
IGROV1 ovarian = test system: IGROV1 ovarian
SF-295 CNS = test system: SF-295 CNS
SK-MEL-5 melanoma = test system: SK-MEL-5 melanoma
HOP-92 NSCLC = test system: HOP-92 NSCLC
LOX IMVI melanoma = test system: LOX IMVI melanoma
OVCAR-4 ovarian = test system: OVCAR-4 ovarian
U251 CNS = test system: U251 CNS
EKVX NSCLC = test system: EKVX NSCLC
MOLT-4 leukemia = test system: MOLT-4 leukemia
786-0 renal = test system: 786-0 renal
SK-MEL-28 melanoma = test system: SK-MEL-28 melanoma
OVCAR-3 ovarian = test system: OVCAR-3 ovarian
RPMI-8226 leukemia = test system: RPMI-8226 leukemia
DLD-1 colon = test system: DLD-1 colon
SW-620 colon = test system: SW-620 colon
NCI-H23 lung = test system: NCI-H23 lung
M14 melanoma = test system: M14 melanoma
CAKI-1 renal = test system: CAKI-1 renal
KM20L2 colon = test system: KM20L2 colon
UO-31 renal = test system: UO-31 renal
COLO 205 colon = test system: COLO 205 colon
DMS 114 small cell lung = test system: DMS 114 small cell lung
HCT-116 colon = test system: HCT-116 colon
A549 NSCLC = test system: A549 NSCLC
OVCAR-8 ovarian = test system: OVCAR-8 ovarian
A498 renal = test system: A498 renal
UACC-257 melanoma = test system: UACC-257 melanoma
CCRF-CEM leukemia = test system: CCRF-CEM leukemia
M19-MEL melanoma = test system: M19-MEL melanoma
SNB-75 CNS = test system: SNB-75 CNS
NCI-H522 lung = test system: NCI-H522 lung
K-562 leukemia = test system: K-562 leukemia
KM12 colon = test system: KM12 colon
NCI-H460 lung = test system: NCI-H460 lung
XF 498 CNS = test system: XF 498 CNS
RXF 393 renal = test system: RXF 393 renal

Measured: TGI

NS(=O)(=O)c1ccc(NC(=O)CC(=O)Nc2ccc(S(N)(=O)=O)cc2)cc1
not listed: KM12 colon | NCI-H460 lung | XF 498 CNS | RXF 393 renal
> 100 µM: all other assays above

O=C(O)c1ccc(N=Nc2cc(S(=O)(=O)O)c3cccnc3c2O)cc1
not listed: UACC-62 melanoma | LXFL 529 NSCLC | HOP-18 NSCLC | M14 melanoma | CCRF-CEM leukemia | NCI-H522 lung
> 100 µM: all other assays above
